Test systems include SK-OV-3 ovarian; DU-145 prostate; OVCAR-3 ovarian; HT29 colon; NCI-H23 lung; RXF 393 renal; SK-MEL-2 melanoma; RPMI-8226 leukemia; UACC-62 melanoma; HCT-15 colon.
Common to all, as to assay: inhibition of tumour cell growth, NCI panel, 48 h

Data on eight molecules can be found in PubChem BioAssay (NCI).

The structures appear in SMILES notation.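 The compound was tested at five concentrations on cells cultured in 96-well plates, with a 48-hour exposure period. At the GI50, growth is halved. TGI: concentration producing complete growth inhibition.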 A value given as a limit tells only on which side of the number the result lay.

`COc1cc2cc(C(=O)CCC(=O)O)sc2cc1OC`: the GI50 in the experiment with SK-OV-3 ovarian was 62.4 µM; in the experiment on DU-145 prostate, more than 100 µM; in the experiment on OVCAR-3 ovarian, more than 100 µM; with HT29 colon, 54.6 µM; in the experiment with NCI-H23 lung, more than 100 µM; in the experiment with RXF 393 renal it was 33.4 µM. In addition, the GI50 in the experiment on SK-MEL-2 melanoma, with RPMI-8226 leukemia, with UACC-62 melanoma and with HCT-15 colon was more than 100 µM in each case. The TGI with SK-OV-3 ovarian, in the experiment with DU-145 prostate, with OVCAR-3 ovarian, in the experiment on HT29 colon, in the experiment with NCI-H23 lung and with RXF 393 renal was more than 100 µM each time. Moreover, the TGI with SK-MEL-2 melanoma, with RPMI-8226 leukemia, with UACC-62 melanoma and in the experiment on HCT-15 colon was more than 100 µM in each case.

Regarding `Cn1cc(C2=C(c3cn(CCO)c4ccccc34)C(=O)NC2=O)c2ccccc21`, the GI50 with SK-OV-3 ovarian was 2.61 µM; in the experiment with DU-145 prostate, 6.94 µM; with OVCAR-3 ovarian, 1.78 µM; in the experiment on HT29 colon it was 1.5 µM; with NCI-H23 lung, 4.75 µM; with RXF 393 renal it was 3.22 µM. Further, the GI50 in the experiment on SK-MEL-2 melanoma was 1.65 µM; with RPMI-8226 leukemia it was 5.33 µM; in the experiment with UACC-62 melanoma, 2.58 µM; in the experiment with HCT-15 colon, 1.57 µM. In addition, the TGI was more than 21.9 µM in the experiment with SK-OV-3 ovarian; more than 23.8 µM in the experiment with DU-145 prostate; 14 µM in the experiment on OVCAR-3 ovarian; more than 14.9 µM with HT29 colon; 15.2 µM in the experiment on NCI-H23 lung; 9.54 µM in the experiment with RXF 393 renal. Also, the TGI with SK-MEL-2 melanoma was 8.37 µM; in the experiment on RPMI-8226 leukemia, 16 µM; with UACC-62 melanoma it was 7.99 µM; in the experiment with HCT-15 colon, more than 25 µM.

On to `O=C(Nc1ccc(F)cc1)Nc1ccccc1CNc1nc(Nc2ccc(OCCN3CCCC3)cc2)ncc1Cl`, for which the GI50 with DU-145 prostate was 2.48 µM; with OVCAR-3 ovarian, 1.01 µM; in the experiment on HT29 colon it was 1.49 µM; in the experiment on NCI-H23 lung, 5.63 µM; in the experiment with RXF 393 renal, 0.895 µM; in the experiment on SK-MEL-2 melanoma, 8.7 µM. Besides, the GI50 with RPMI-8226 leukemia is 1.4 µM; with UACC-62 melanoma, 0.968 µM; with HCT-15 colon it was 1.58 µM. Moreover, the TGI was 8.06 µM in the experiment on DU-145 prostate; 2.01 µM in the experiment with OVCAR-3 ovarian; 50 µM in the experiment with HT29 colon; 13.1 µM in the experiment with NCI-H23 lung; 1.88 µM with RXF 393 renal; 18.4 µM in the experiment with SK-MEL-2 melanoma. The figures for the TGI in the experiment with RPMI-8226 leukemia, in the experiment on UACC-62 melanoma and in the experiment with HCT-15 colon were 3.72 µM, 2.04 µM and 6.06 µM, respectively.

`Cc1nc(-c2ccccc2)c(Cc2ccccc2O)c(=O)[nH]1`: the TGI in the experiment with SK-OV-3 ovarian, with DU-145 prostate, with OVCAR-3 ovarian, with HT29 colon, in the experiment with NCI-H23 lung and with RXF 393 renal was more than 100 µM in each case. Further, the TGI in the experiment on SK-MEL-2 melanoma, in the experiment on RPMI-8226 leukemia, in the experiment on UACC-62 melanoma and in the experiment with HCT-15 colon was more than 100 µM throughout.

As to `C/C=C/C/C=C/CCC(=O)[C@H]1O[C@H]1C(N)=O`, the GI50 with SK-OV-3 ovarian was 27 µM; with DU-145 prostate it was 13.7 µM; in the experiment on OVCAR-3 ovarian, 13.9 µM; in the experiment with RXF 393 renal, 5.07 µM; in the experiment on SK-MEL-2 melanoma, 15.9 µM; in the experiment with RPMI-8226 leukemia, 6.58 µM. Moreover, the GI50 with UACC-62 melanoma is 11.4 µM; in the experiment on HCT-15 colon, 8.45 µM. For the same molecule, the TGI was more than 72.7 µM with SK-OV-3 ovarian; 27.1 µM with DU-145 prostate; 27.4 µM with OVCAR-3 ovarian; 31.8 µM with HT29 colon; 29.9 µM in the experiment on NCI-H23 lung; 19.1 µM in the experiment with RXF 393 renal. For the same molecule, the TGI was found to be 32.5 µM in the experiment on SK-MEL-2 melanoma, 54.2 µM in the experiment with RPMI-8226 leukemia, 23.9 µM in the experiment on UACC-62 melanoma and 24.1 µM with HCT-15 colon.

Turning to `O=[N+]([O-])c1ccccc1N=Nc1c(O)[nH]c2ccc(Br)cc12`, the TGI in the experiment on SK-OV-3 ovarian was more than 77.3 µM; in the experiment on DU-145 prostate, 31.5 µM; in the experiment on OVCAR-3 ovarian, 35.4 µM; in the experiment with HT29 colon, 29.3 µM; with NCI-H23 lung, 21.3 µM; in the experiment with RXF 393 renal, more than 47.5 µM. Moreover, the TGI with SK-MEL-2 melanoma is 54.1 µM; in the experiment on RPMI-8226 leukemia it was more than 68.6 µM; in the experiment on UACC-62 melanoma, 66.8 µM; in the experiment on HCT-15 colon, more than 56 µM.

Take `Cn1ccnc1C(=O)/C=C/c1ccc(C(=O)Nc2ccc(S(F)(F)(F)(F)F)cc2)cc1`: the GI50 was more than 14.3 µM in the experiment on SK-OV-3 ovarian; 2.41 µM in the experiment with DU-145 prostate; 1.05 µM with OVCAR-3 ovarian; 1.88 µM with HT29 colon; 0.853 µM with NCI-H23 lung; 2.65 µM in the experiment with RXF 393 renal. Further, the GI50 with SK-MEL-2 melanoma is more than 14.3 µM; with RPMI-8226 leukemia, 0.38 µM; in the experiment with UACC-62 melanoma it was 2.28 µM; in the experiment on HCT-15 colon it was 0.799 µM. In addition, the TGI is more than 14.3 µM with SK-OV-3 ovarian; more than 14.3 µM in the experiment with DU-145 prostate; 7.26 µM in the experiment on OVCAR-3 ovarian; more than 14.3 µM in the experiment with HT29 colon; more than 14.3 µM in the experiment on NCI-H23 lung; 13.9 µM with RXF 393 renal. In addition, the TGI was more than 14.3 µM with SK-MEL-2 melanoma, 2.68 µM in the experiment on RPMI-8226 leukemia, more than 14.3 µM in the experiment on UACC-62 melanoma and 4.92 µM with HCT-15 colon.

For the molecule `Clc1ccc(/C=C/c2cc(N3CCOCC3)c3cc(Cl)c(Cl)cc3n2)cc1`, the GI50 is more than 100 µM in the experiment on SK-OV-3 ovarian; more than 100 µM in the experiment with DU-145 prostate; 3.81 µM with OVCAR-3 ovarian; more than 100 µM with HT29 colon; more than 100 µM in the experiment on NCI-H23 lung; more than 100 µM in the experiment with RXF 393 renal. The GI50 in the experiment on SK-MEL-2 melanoma is more than 100 µM; with RPMI-8226 leukemia, 0.311 µM; in the experiment on UACC-62 melanoma it was more than 100 µM; with HCT-15 colon it was more than 100 µM. Further, the TGI in the experiment on SK-OV-3 ovarian, in the experiment on DU-145 prostate, in the experiment with OVCAR-3 ovarian, with HT29 colon, with NCI-H23 lung and in the experiment with RXF 393 renal was more than 100 µM in each case. For the same molecule, the TGI with SK-MEL-2 melanoma is more than 100 µM; with RPMI-8226 leukemia, 1.09 µM; with UACC-62 melanoma, more than 100 µM; in the experiment with HCT-15 colon it was more than 100 µM.
